From ChEMBL document CHEMBL4732213, “Discovery of novel ceramide analogs with favorable pharmacokinetic properties and combination with AKT inhibitor against colon cancer” (Eur J Med Chem, 2021)
Calls of active or inactive are those of the source. The calls are words filed in the database; no cut-off is given here.

Tests used:
HT-29 [1] = experiment: Induction of apoptosis in human HT29 cells at 15 uM after 48 hrs by Annexin-V-FITC/PI staining based flow cytometric analysis; assay type: functional, cell-based
[2] = Toxicity in BALB/c nude mouse xenografted with human HT-29 cells assessed as effect on body weight at 100 mg/kg/day, ip measured every 3 day in presence of 50 mg/kg AKT inhibitor MK2206 by electronic caliper method; assay type: organism-based; conditions: in vivo, 72 h
[3] = Antiproliferative activity against human SNU878 cells measured after 72 hrs by sulforhodamine B assay; assay type: functional, cell-based; conditions: SNU878, 72 h
HT-29 [4] = experiment: Upregulation of p21 protein expression in human HT29 cells at 20 uM incubated for 24 hrs by Western blotting analysis; assay type: functional, cell-based
WI-38 = experiment: Antiproliferative activity against human WI-38 cells measured after 72 hrs by sulforhodamine B assay; assay type: cell-based; conditions: WI-38, 72 h
HT-29 [5] = experiment: Upregulation of p21 protein expression in human HT29 cells at 20 uM incubated for 24 hrs in presence of 10 uM AKT inhibitor MK2206 by Western blotting analysis; assay type: functional, cell-based
[6] = AUC(0 to infinity) in BALB/c mouse at 50 mg/kg, ip; assay type: ADME, organism-based; set-up: time infinity, route intraperitoneal, dose 50 mg/kg; conditions: in vivo
HT-29 [7] = experiment: Down regulation of CDK2 expression in human HT29 cells at 20 uM incubated for 24 hrs in presence of 10 uM AKT inhibitor MK2206 by Western blotting analysis; assay type: functional, cell-based
HT-29 [8] = experiment: Synergistic antiproliferative activity against human HT29 cells assessed as combination index at 20 uM after 72 hrs in presence of 5 uM AKT inhibitor MK2206 by Chou-Talalay method; assay type: functional
[9] = AUC(0 to t) in BALB/c mouse at 10 mg/kg, iv; assay type: ADME, organism-based; set-up: dose 10 mg/kg; conditions: in vivo
HT-29 [10] = experiment: Induction of cell cycle arrest in human HT29 cells assessed as accumulation at G0/G1 phase at 20 uM after 24 hrs in presence of 10 uM AKT inhibitor MK2206 by PI staining based flow cytometry analysis; assay type: functional
HT-29 [11] = experiment: Antitumor activity against human HT-29 cells xenografted in BALB/c nude mouse assessed as tumor growth inhibition at 100 mg/kg/day, ip measured every 3 days by electronic caliper method; assay type: functional; conditions: HT-29, ip, 72 h, time 3 day, read-out: TGI
HT-29 [12] = experiment: Induction of apoptosis in human HT29 cells assessed as increase in PARP cleavage at 20 uM after 48 hrs in presence of 10 uM AKT inhibitor MK2206 by Western blot analysis; assay type: functional, cell-based
T84 [13] = experiment: Antiproliferative activity against human T84 cells measured after 72 hrs by sulforhodamine B assay; assay type: functional, cell-based; conditions: T84, 72 h
[14] = Antiproliferative activity against human MINO cells measured after 72 hrs by CCK-8 assay; assay type: functional, cell-based
HT-29 [15] = experiment: Induction of apoptosis in human HT29 cells assessed as increase in caspase-3 cleavage at 20 uM after 48 hrs in presence of 10 uM AKT inhibitor MK2206 by Western blot analysis; assay type: functional, cell-based
[16] = Antiproliferative activity against human GM00637 cells measured after 72 hrs by sulforhodamine B assay; assay type: cell-based; conditions: GM00637, 72 h
[17] = Tmax in BALB/c mouse at 50 mg/kg, ip; assay type: ADME, organism-based; conditions: in vivo
SW480 [18] = experiment: Additive antiproliferative activity against human SW480 cells assessed as combination index at 40 uM after 72 hrs in presence of 20 uM AKT inhibitor MK2206 by Chou-Talalay method; assay type: functional
LoVo = experiment: Antiproliferative activity against human Lovo cells measured after 72 hrs by sulforhodamine B assay; assay type: functional, cell-based
[19] = Cmax in BALB/c mouse at 50 mg/kg, ip; assay type: ADME, organism-based; set-up: route intraperitoneal, dose 50 mg/kg; conditions: in vivo
HT-29 [20] = experiment: Induction of cell cycle arrest in human HT29 cells assessed as accumulation at G0/G1 phase at 20 uM after 24 hrs by PI staining based flow cytometry analysis; assay type: functional
HT-29 [21] = experiment: Antitumor activity against human HT-29 cells xenografted in BALB/c nude mouse assessed as reduction in tumor weight at 100 mg/kg/day, ip measured every 3 days in presence of 50 mg/kg AKT inhibitor MK2206 by electronic caliper method; assay type: functional, organism-based; conditions: time 3.0 day
HT-29 [22] = experiment: Antitumor activity against human HT-29 cells xenografted in BALB/c nude mouse assessed as tumor growth inhibition at 100 mg/kg/day, ip measured every 3 days in presence of 50 mg/kg AKT inhibitor MK2206 by electronic caliper method; assay type: functional; conditions: HT-29, ip, 72 h, time 3 day, read-out: TGI
T84 [23] = experiment: Additive antiproliferative activity against human T84 cells assessed as combination index at 5 uM after 72 hrs in presence of 2.5 uM AKT inhibitor MK2206 by Chou-Talalay method; assay type: functional
HT-29 [24] = experiment: Synergistic antiproliferative activity against human HT29 cells assessed as combination index at 30 uM after 72 hrs in presence of 7.5 uM AKT inhibitor MK2206 by Chou-Talalay method; assay type: functional
SW480 [25] = experiment: Antiproliferative activity against human SW480 cells measured after 72 hrs by sulforhodamine B assay; assay type: functional, cell-based; conditions: SW480, 72 h
HT-29 [26] = experiment: Downregulation of c-Myc protein expression level in human HT29 cells at 20 uM incubated for 24 hrs by Western blotting analysis; assay type: functional, cell-based
[27] = Toxicity in BALB/c nude mouse xenografted with human HT-29 cells assessed as effect on body weight at 100 mg/kg/day, ip measured every 3 day by electronic caliper method; assay type: organism-based; conditions: in vivo, 72 h
HCT-116 = experiment: Antiproliferative activity against human HCT116 cells measured after 72 hrs by sulforhodamine B assay; assay type: functional, cell-based; conditions: HCT-116, 72 h
COLO-678 = experiment: Synergistic antiproliferative activity against human COLO-678 cells assessed as combination index at 30 uM after 72 hrs in presence of 7.5 uM AKT inhibitor MK2206 by Chou-Talalay method; assay type: functional
HT-29 [28] = experiment: Down regulation of p-RB expression in human HT29 cells at 20 uM incubated for 24 hrs in presence of 10 uM AKT inhibitor MK2206 by Western blotting analysis; assay type: functional, cell-based
HT-29 [29] = experiment: Downregulation of c-Myc protein expression level in human HT29 cells at 20 uM incubated for 24 hrs in presence of 10 uM AKT inhibitor MK2206 by Western blotting analysis; assay type: functional, cell-based
HT-29 [30] = experiment: Induction of ROS generation in human HT29 cells at 20 uM after 16 hrs in presence of 10 uM AKT inhibitor MK2206 by flow cytometric analysis; assay type: functional, cell-based
HT-29 [31] = experiment: Induction of apoptosis in human HT29 cells assessed as inhibition of AKT phosphorylation at 20 uM after 48 hrs in presence of 10 uM MK2206 by Western blotting analysis; assay type: functional, cell-based
[32] = Half life in BALB/c mouse at 10 mg/kg, iv; assay type: ADME, organism-based; conditions: in vivo
T84 [33] = experiment: Additive antiproliferative activity against human T84 cells assessed as combination index at 10 uM after 72 hrs in presence of 5 uM AKT inhibitor MK2206 by Chou-Talalay method; assay type: functional
SW-620 = experiment: Antiproliferative activity against human SW620 cells measured after 72 hrs by sulforhodamine B assay; assay type: functional, cell-based; conditions: SW-620, 72 h
SW480 [34] = experiment: Synergistic antiproliferative activity against human SW480 cells assessed as combination index at 20 uM after 72 hrs in presence of 10 uM AKT inhibitor MK2206 by Chou-Talalay method; assay type: functional

SMILES: CCCCCCCOc1ccc(CCC(CO)(CO)NC(C)=O)c2ccccc12
- Activity (HT-29 [1]): inactive
- Activity [2]: Non-Toxic
- IC50 [3]: 6.68 µM
- Activity (HT-29 [4]): inactive
- IC50 (WI-38): 50.9 µM
- Activity (HT-29 [5]): Active
- AUC(0-inf) [6]: 15700 ng·h/mL
- Activity (HT-29 [7]): Active
- CI (HT-29 [8]): 0.77
- AUC(0-t) [9]: 3060 ng·h/mL
- Activity (HT-29 [10]): Active
- inhibition in vivo at 100 mg/kg/day (HT-29 [11]): 25.4%
- Activity (HT-29 [12]): Active
- IC50 (T84 [13]): 14.9 µM
- IC50 [14]: 13.3 µM
- Activity (HT-29 [15]): Active
- IC50 [16]: 47.9 µM
- Tmax [17]: 0.75 h
- CI (SW480 [18]): 0.97
- IC50 (LoVo): 26.4 µM
- Cmax [19]: 6030 ng/mL
- Activity (HT-29 [20]): inactive
- Activity (HT-29 [21]): Active
- inhibition in vivo at 100 mg/kg/day (HT-29 [22]): 47.5%
- CI (T84 [23]): 1.1
- CI (HT-29 [24]): 0.53
- IC50 (SW480 [25]): 22.7 µM
- Activity (HT-29 [26]): inactive
- Activity [27]: Non-Toxic
- IC50 (HCT-116): 25.8 µM
- CI (COLO-678): 0.43
- Activity (HT-29 [28]): Active
- Activity (HT-29 [29]): Active
- Activity (HT-29 [30]): Active
- Activity (HT-29 [31]): inactive
- half-life [32]: 3.12 h
- CI (T84 [33]): 1.01
- IC50 (SW-620): 29.6 µM
- CI (SW480 [34]): 0.62
